Among the test systems are 786-0 renal; A498 renal; HCT-116 colon; HOP-62 NSCLC; OVCAR-3 ovarian; OVCAR-4 ovarian; RXF 393 renal; SF-295 CNS; SK-MEL-5 melanoma.
What all share (assay): growth of human tumour cells (NCI), 48 h

Molecules are shown by their SMILES.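 Results reflect a 48-hour exposure of cells in 96-well plates to compound at five concentrations. At the GI50, growth is halved. TGI marks complete inhibition of growth.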

For `COc1ccc2c(c1)C(=O)[C@@](Nc1ccc(C=O)cc1)(OC)[C@@](OC)(c1ccc([N+](=O)[O-])cc1)O2`, the TGI in the test on 786-0 renal, in the test on A498 renal, with HCT-116 colon, in the test with HOP-62 NSCLC, with OVCAR-3 ovarian and in the test with OVCAR-4 ovarian was over 10 µM throughout. In addition, the TGI in the test with RXF 393 renal, in the test on SF-295 CNS and in the test on SK-MEL-5 melanoma was over 10 µM each time.
`N[C@@H](Cc1ccc2oc3cc(=O)c4ccccc4c-3nc2c1)C(=O)O`: the TGI in the test on 786-0 renal was over 100 µM; with A498 renal, over 100 µM; in the test on HCT-116 colon it was over 100 µM; with HOP-62 NSCLC it was 48.2 µM; with OVCAR-3 ovarian it was over 100 µM; in the test with OVCAR-4 ovarian, over 100 µM. Besides, the values for the TGI with RXF 393 renal, with SF-295 CNS and in the test on SK-MEL-5 melanoma were over 100 µM, 64 µM and 24.1 µM, respectively.
For `O=C1CSC(c2cccc(Oc3ccccc3)c2)N1c1cccc(Cl)c1Cl` (stereo unspecified), the TGI in the test on 786-0 renal is 87.7 µM; with A498 renal it was 93.5 µM; with HCT-116 colon it was 38.5 µM; in the test on HOP-62 NSCLC it was over 100 µM; with OVCAR-3 ovarian, over 100 µM; in the test on OVCAR-4 ovarian, over 100 µM. Also, the TGI in the test on RXF 393 renal is over 100 µM; in the test on SF-295 CNS, over 100 µM; in the test with SK-MEL-5 melanoma, 50 µM.
With `ClCCc1ccccc1CC1=NCCc2ccccc21`, the TGI with 786-0 renal, in the test with A498 renal, in the test on HCT-116 colon, in the test on HOP-62 NSCLC, in the test on OVCAR-3 ovarian and in the test with OVCAR-4 ovarian was over 100 µM in each case. In addition, the TGI in the test with RXF 393 renal is 61.8 µM; in the test on SF-295 CNS, over 100 µM; in the test on SK-MEL-5 melanoma it was 47.9 µM.
Regarding `COc1c2occc2cc2ccc(=O)oc12`, the TGI in the test with 786-0 renal, in the test on A498 renal, in the test on HCT-116 colon, with HOP-62 NSCLC, in the test on OVCAR-3 ovarian and in the test on OVCAR-4 ovarian was over 100 µM each time. The TGI with RXF 393 renal, in the test with SF-295 CNS and in the test on SK-MEL-5 melanoma was over 100 µM each time. In the test on RXF 393 renal, the GI50 is over 100 µM.
On to `COc1ccc(S(=O)(=O)Nc2ccc(-c3csc(N4C(=O)/C(=C/c5cccs5)N=C4c4ccccc4)n3)cc2)cc1Cl`, for which the TGI was over 100 µM in the test on 786-0 renal; 65.2 µM with A498 renal; over 100 µM in the test with HCT-116 colon; 45.8 µM in the test on HOP-62 NSCLC; over 100 µM in the test on OVCAR-3 ovarian; over 100 µM with OVCAR-4 ovarian. Besides, the TGI in the test with RXF 393 renal, in the test on SF-295 CNS and in the test with SK-MEL-5 melanoma was over 100 µM each time.
For the compound `COC(=O)[C@]1(Cc2ccc3ccccc3c2)CCCCCCN1C(=O)c1ccccc1`, the TGI in the test with 786-0 renal was over 53.2 µM; in the test on A498 renal, over 51.5 µM; in the test on HCT-116 colon, over 44.1 µM; in the test on HOP-62 NSCLC, over 46.5 µM; in the test on OVCAR-3 ovarian it was over 43.5 µM; in the test with OVCAR-4 ovarian, 26 µM. Moreover, the TGI was over 47.5 µM in the test on RXF 393 renal, over 44.5 µM in the test on SF-295 CNS and over 100 µM with SK-MEL-5 melanoma.
For the compound `COc1ccc(/C=C2/SC(c3c(O)ccc4ccccc34)N(NC(=O)CCCCCCCCC(=O)NN3C(=O)/C(=C\c4ccc(OC)c(OC)c4)SC3c3c(O)ccc4ccccc34)C2=O)cc1OC` (stereo unspecified), the TGI with 786-0 renal is over 20.5 µM; in the test with A498 renal, 49.3 µM; in the test on HCT-116 colon, over 100 µM; with HOP-62 NSCLC it was over 39.8 µM; in the test with OVCAR-3 ovarian, over 58.5 µM; in the test with OVCAR-4 ovarian, over 100 µM. Also, the values for the TGI with RXF 393 renal, with SF-295 CNS and in the test with SK-MEL-5 melanoma were over 79.7 µM, over 100 µM and 2.29 µM, respectively.
Turning to `C=CC(C)(C)n1cc(C2=C(O)C(=O)C(c3c(CC=C(C)C)[nH]c4ccccc34)=C(O)C2=O)c2ccccc21`, the TGI was 6.97 µM in the test on 786-0 renal; 2.99 µM in the test with A498 renal; 5.59 µM in the test with HCT-116 colon; 2.63 µM in the test with HOP-62 NSCLC; 3.05 µM with OVCAR-3 ovarian; 11.8 µM in the test on OVCAR-4 ovarian. Further, the figures for the TGI with RXF 393 renal, with SF-295 CNS and in the test on SK-MEL-5 melanoma were 6.05 µM, 4.1 µM and 4.1 µM, respectively.
For the compound `Nc1ncnc2c1cnn2COCC(O)CO` (stereo unspecified), the TGI in the test on 786-0 renal, in the test on A498 renal, in the test with HCT-116 colon, with HOP-62 NSCLC, with OVCAR-3 ovarian and in the test with OVCAR-4 ovarian was over 100 µM each time. The TGI in the test on RXF 393 renal, in the test on SF-295 CNS and with SK-MEL-5 melanoma was over 100 µM throughout.
For `COc1cc(C(=O)N(C(=S)OC23CC4CC(CC(C4)C2)C3)c2ccccc2)cc(OC)c1OC`, the TGI with 786-0 renal is over 100 µM; with A498 renal, 92.5 µM; in the test on HCT-116 colon it was 46.4 µM; in the test with HOP-62 NSCLC, over 100 µM; in the test on OVCAR-3 ovarian it was over 100 µM; in the test with OVCAR-4 ovarian it was over 100 µM. In addition, the TGI in the test on RXF 393 renal was over 100 µM; in the test on SF-295 CNS, over 100 µM; with SK-MEL-5 melanoma it was 32.9 µM.
Take `CC(C)C[C@H](NC(=O)CCc1cccc2ccccc12)B(O)O`: the TGI with 786-0 renal amounted to 28.3 µM; in the test with A498 renal it was 6.12 µM; in the test with HCT-116 colon it was 2.91 µM; with HOP-62 NSCLC, 14.3 µM; in the test on OVCAR-3 ovarian, 1.86 µM; in the test with OVCAR-4 ovarian it was 29 µM. For the same compound, the TGI was determined as 2.03 µM with RXF 393 renal, 20.2 µM in the test on SF-295 CNS and 1.85 µM in the test on SK-MEL-5 melanoma.
As for `O=C1/C(=C\c2cccc(Oc3ccccc3)c2)SC(c2ccccc2)N1c1cccc(Cl)c1` (stereo unspecified), the TGI in the test with 786-0 renal, with A498 renal, with HCT-116 colon, in the test on HOP-62 NSCLC, in the test on OVCAR-3 ovarian and with OVCAR-4 ovarian was over 100 µM in each case. Also, the TGI with RXF 393 renal, in the test with SF-295 CNS and with SK-MEL-5 melanoma was over 100 µM throughout.
On to `C=C(C1=CC(=O)C(C)(C)O1)[C@@H]1CC=C([C@@H]2CC[C@H]3[C@@]2(C)CC[C@H]2C(C)(C)C(=O)[C@H](OC(=O)CC(C)(O)CC(=O)O)C[C@]32C)[C@H](O)O1` (stereo partly specified), for which the TGI in the test on 786-0 renal came to 24.4 µM; with A498 renal it was 26 µM; in the test on HCT-116 colon, 24 µM; with HOP-62 NSCLC it was 35 µM; with OVCAR-3 ovarian it was 23.6 µM; in the test on RXF 393 renal, 17 µM. For the same compound, the TGI with SF-295 CNS is over 75 µM; in the test with SK-MEL-5 melanoma, 24.4 µM.

For the origin of these results see PubChem BioAssay (NCI).
